Our source for the Activity values is ChEMBL document CHEMBL1140175, “Synthesis and evaluation of novel boron-containing complexes of potential use for the selective treatment of malignant melanoma” (J Med Chem, 2008).

Data set [1] concerns the target T1, Tyrosinase (Agaricus bisporus) (UniProt O42713).
T1 sequence (whole entry): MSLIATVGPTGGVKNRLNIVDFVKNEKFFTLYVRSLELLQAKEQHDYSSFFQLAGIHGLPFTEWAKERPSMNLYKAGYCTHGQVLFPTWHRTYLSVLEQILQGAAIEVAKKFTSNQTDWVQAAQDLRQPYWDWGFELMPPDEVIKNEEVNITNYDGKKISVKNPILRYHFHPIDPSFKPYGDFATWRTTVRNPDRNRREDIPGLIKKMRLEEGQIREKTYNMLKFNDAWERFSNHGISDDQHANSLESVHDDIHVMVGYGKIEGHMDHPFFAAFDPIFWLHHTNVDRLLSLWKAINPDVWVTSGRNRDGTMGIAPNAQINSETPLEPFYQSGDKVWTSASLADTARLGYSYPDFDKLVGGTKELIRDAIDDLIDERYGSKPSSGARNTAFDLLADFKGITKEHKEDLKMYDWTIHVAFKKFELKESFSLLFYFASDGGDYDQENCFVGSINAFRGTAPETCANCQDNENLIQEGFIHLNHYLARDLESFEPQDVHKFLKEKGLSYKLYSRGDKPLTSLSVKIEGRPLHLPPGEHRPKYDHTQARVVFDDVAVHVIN
Kind of data set: Binding affinity to mushroom tyrosinase assessed as […].

Data set [2] relates to MCF7. As to the kind of experiment: Cytotoxicity against human MCF7 cells assessed as LDH release up to 100 uM after 6 hrs by colorimetric assay. The class given is functional.
A short description of data set [3]: Cellular uptake in human SK-MEL-23 cells assessed as boron content at 50 uM after 2 hrs relative to control. The class given is ADME, cell-based.
The nature of data set [4]: Cellular uptake in human SK-MEL-23 cells assessed as boron content at 50 uM relative to control. In kind it is ADME, cell-based.
A short description of data set [5]: Cellular uptake in human SK-MEL-23 cells assessed as boron content at 50 uM after 6 hrs relative to control. The class given is ADME, cell-based.
Data set [6] can be described thus: Cytotoxicity against human SK-MEL-23 cells assessed as LDH release up to 100 uM after 6 hrs by colorimetric assay. The class given is functional. On the technique in general: Release of lactate dehydrogenase indicates damage to the cell membrane.

Active and inactive are the calls of the source. The calls are words filed in the database; no cut-off is given here.

Take `O=C1O[B-]2([NH2+][C@H]1Cc1c[nH]c3ccc(O)cc13)C1CCCC2CCC1` (some centres undefined): the result in data set [1] was inactive.
As to `O=C1O[B-]2([NH2+][C@H]1Cc1ccc(O)cc1)C1CCCC2CCC1` (some centres undefined), the Activity is listed as <5% in data set [2]; 50% in data set [3]; “Not Active” in data set [4]; > 50% in data set [5]; <5% in data set [6]. Moreover, in data set [1], the result was Active.
For the compound `O=C1O[B-]2([NH2+][C@H]1Cc1ccccc1)C1CCCC2CCC1` (some centres undefined), in data set [1], the outcome was inactive.
For `O=C1O[B-]2([NH2+][C@H]1Cc1ccc(O)c(O)c1)C1CCCC2CCC1` (some centres undefined), the result in data set [1] was Active.
